From US20240262819A1, “NOVEL COMPOUNDS HAVING INHIBITORY ACTIVITY AGAINST GLUCOSYLCERAMIDE SYNTHASE OR PHARMACEUTICALLY ACCEPTABLE SALT THEREOF, PROCESSES FOR PREPARING THE SAME, AND PHARMACEUTICAL COMPOSITIONS COMPRISING THE SAME” (YUHAN CORPORATION, priority 2021, published 2024) come the findings set out here.

SMILES strings stand for the structures. Like-named read-outs stand apart in the source and are kept apart here.

For data set [1], the system named is GM1 production in Jurkat cells. As to the kind of experiment: cells. The format is cell-based.
Data set [2] addresses glucosylceramide synthase (GCS) (Homo sapiens (Human), UniProt Q16739). As to the kind of experiment: Evaluation of inhibitory activities against GCS (A549 cell lysate, NBD C6-ceramide, HPLC). The format is biochemical. How it is done:
The inhibitory activities of the compounds of the present invention against GCS were evaluated, as follows, according to the method described in the known literature (Hayashi Y et al., A sensitive and reproducible assay to measure the activity of glucosylceramide synthase and lactosylceramide synthase using HPLC and fluorescent substrates, Analytical Biochemistry 345 (2005) 181-186). Ibiglustat, known as a GCS inhibitor, was used as a control.
After the cells attached to the culture dish were washed with phosphate buffered saline (PBS), the cells were scraped off with a cell scraper and then centrifuged (4000 rpm, 3 min, 4 °C) to collect the cells in a 50 ml tube. The cell pellets were suspended in a lysis buffer (50 mM HEPES, pH 7.3, containing 1× the protease/phosphatase inhibitor cocktail), lysed by sonication, and then the lysate was centrifuged (13000 rpm, 10 min, 4° C.). The obtained supernatant was used for the quantitative analysis of proteins. The amount of proteins was measured using the BCA protein assay kit, using bovine serum albumin as a standard.
Enzymatic reactions were initiated by sequentially adding the following reaction materials to a 96 deep-well plate. Thereafter, the enzymatic reactions were performed at 37° C. for 90 minutes.
The enzymatic reactions were stopped by adding 100 μl of chloroform/methanol (2:1, v/v). […] The lower layer (50 μl) was transferred to a new 96 deep-well plate and dried with a reduced concentrator.
Lipids were dissolved in 100 μl of isopropyl alcohol/n-hexane/H2O (55:44:1, v/v/v) and then transferred to a glass vial for HPLC (Agilent, 8004-HP-H/i3u). The sample (100 μl) was automatically loaded onto a normal-phase column (Intersil SIL 150A-5, 4.6×250 mm, GL Sciences, Japan) and then eluted at a flow rate of 2.0 ml/min with isopropyl alcohol/n-hexane/H2O (55:44:1, v/v/v). The fluorescence thereof was measured with a fluorescence detector (Agilent, 1260 FLD Spectra), using 470 nm and 530 nm as excitation and emission wavelengths, respectively.
Data analysis was performed by the following equations.
% Area (Sample)=Area (GlcCer)/[Area (Cer)+Area (GlcCer)]×100%
GCS activity=[Area (Sample)−Area (ibiglustat)]/[Area (DMSO)−Area (ibiglustat)]×100
The obtained % GCS activity data was analyzed with the software GraphPad Prism (Ver 5.01) to calculate the IC50 values.

The nature of data set [3]: Evaluation of blood-brain barrier (BBB) permeability through oral administration. The format is in vivo, mice. Conditions: mouse, in vivo, mice, oral, dose 30 mg/kg, 4 hr; for Kp at 4 h: read-out: Mean brain-plasma drug ratio at 4 hr. As to the method: The blood-brain barrier (BBB) permeability was evaluated in mice, with respect to the compounds according to the present invention and the control (ibiglustat). Each compound of the present invention and the control were suspended in 0.5% methyl cellulose containing 0.2% Tween 80 and then orally administered to mice at a dose of 10 or 30 mg/10 ml/kg. After the whole blood was collected from the heart of each mouse at the time of 4 hours after the administration, it was placed in a lithium heparin tube and immediately centrifuged to obtain the plasma. After the exsanguination was carried out through abdominal vena cava incision, the forebrain was taken by dissection of the head. Both of the forebrain and the plasma were stored in a −80° C. freezer until the analysis of drug concentrations therein. For the analysis of drug concentrations therein, the forebrain was immersed in distilled water and then homogenized with a homogenizer to obtain a homogenate. Each plasma and homogenate was treated with acetonitrile to precipitate proteins, vortexed for 15 seconds, and then centrifuged (12700 rpm, 10 min, 4° C.). The obtained supernatant was diluted with an 80% aqueous solution of acetonitrile containing 0.1% formic acid and then analyzed with an LC-MS/MS instrument. LC-MS/MS analysis was carried out with a reversed-phase column, using distilled water containing 0.1% formic acid and acetonitrile as mobile phases. Each eluted material was detected through a mass spectrometer to calculate the drug concentrations thereof. The brain-plasma drug ratio (B/P ratio) was calculated from the drug concentrations in each tissue to evaluate the blood-brain barrier (BBB) permeability.

The mark [4] stands for this setting: % GCS activity, A549 cell lysate, 37° C. for 90 minutes, read-out: IC50.
Where [5] appears, read: read-out: Mean drug concentrations in brain tissue at 4 hr.
[6] abbreviates: read-out: Mean drug concentrations in plasma at 4 hr.

Chain of glucosylceramide synthase (GCS) (Q16739 whole entry): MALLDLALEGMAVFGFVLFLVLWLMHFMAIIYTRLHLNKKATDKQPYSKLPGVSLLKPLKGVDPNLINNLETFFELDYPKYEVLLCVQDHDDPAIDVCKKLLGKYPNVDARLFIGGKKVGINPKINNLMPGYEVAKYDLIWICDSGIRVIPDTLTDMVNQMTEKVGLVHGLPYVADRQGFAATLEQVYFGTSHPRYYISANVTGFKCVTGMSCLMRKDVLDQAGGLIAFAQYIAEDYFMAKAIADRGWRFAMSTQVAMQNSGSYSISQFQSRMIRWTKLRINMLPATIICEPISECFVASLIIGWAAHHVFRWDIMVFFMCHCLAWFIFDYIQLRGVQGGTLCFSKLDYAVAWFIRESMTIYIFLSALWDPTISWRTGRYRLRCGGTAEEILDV

On to `CCc1ccc(-c2ccc3c(c2)CC(C)(C)[C@H]3NC(=O)O[C@@H]2CN3CCC2CC3)cc1F` [Example 33, (S)-quinuclidin-3-yl((R)-5-(4-ethyl-3-fluorophenyl)-2,2-dimethyl-2,3-dihydro-1H-inden-1-yl)carbamate], for which the IC50 stood at 7.3 nM in data set [1] (Homo sapiens, Jurkat, 72 h) and 0.97 nM in data set [2].
Consider `CC(C)Oc1c(F)cc(-c2ccc3c(c2)CC(C)(C)[C@H]3NC(=O)O[C@@H]2CN3CCC2CC3)cc1F` [Example 37, (S)-quinuclidin-3-yl((R)-5-(3,5-difluoro-4-isopropoxyphenyl)-2,2-dimethyl-2,3-dihydro-1H-inden-1-yl)carbamate], for which the 50% inhibitory concentration (IC50) in data set [1] (Homo sapiens, Jurkat, 72 h) amounted to 2.2 nM; in data set [2], 1.94 nM.
Regarding `CC(C)Oc1c(Cl)cc(-c2ccc3c(c2)CC(C)(C)[C@H]3NC(=O)O[C@@H]2CN3CCC2CC3)cc1Cl` [Example 40, (S)-quinuclidin-3-yl((R)-5-(3,5-dichloro-4-isopropoxyphenyl)-2,2-dimethyl-2,3-dihydro-1H-inden-1-yl)carbamate], the concentration for half-maximal inhibition (IC50) was 1.6 nM in data set [1] (Homo sapiens, Jurkat, 72 h) and 3.21 nM in data set [2].
The like results for `CC(C)(C)Oc1ccc(-c2ccc3c(c2)CC(C)(C)[C@H]3NC(=O)O[C@@H]2CN3CCC2CC3)cc1` [Example 41, (S)-quinuclidin-3-yl((R)-5-(4-(tert-butoxy)phenyl)-2,2-dimethyl-2,3-dihydro-1H-inden-1-yl)carbamate] were, in that order, 13.6 nM and 0.9 nM.
The like results for `CC(C)(C)Oc1ccc(-c2ccc3c(c2)CC(C)(C)[C@H]3NC(=O)O[C@@H]2CN3CCC2CC3)c(Cl)c1` [Example 42, (S)-quinuclidin-3-yl((R)-5-(4-(tert-butoxy)-2-chlorophenyl)-2,2-dimethyl-2,3-dihydro-1H-inden-1-yl)carbamate] were, in that order, 2.6 nM and 0.3 nM.
The corresponding values for `CCOc1ccc(-c2ccc3c(c2)CC(C)(C)[C@H]3NC(=O)O[C@@H]2CN3CCC2CC3)cc1C` [Example 46, (S)-quinuclidin-3-yl((R)-5-(4-ethoxy-3-methylphenyl)-2,2-dimethyl-2,3-dihydro-1H-inden-1-yl)carbamate] are 11.6 nM and 2.19 nM.
On to `CCCOc1ccc(-c2ccc3c(c2)CC(C)(C)[C@H]3NC(=O)O[C@@H]2CN3CCC2CC3)cc1C` [Example 47, (S)-quinuclidin-3-yl((R)-2,2-dimethyl-5-(3-methyl-4-propoxyphenyl)-2,3-dihydro-1H-inden-1-yl) carbamate], for which the IC50 in data set [1] (read-out: IC50) was found to be 7.7 nM; in data set [2] (setting [4]), 1.89 nM.
On to `Cc1cc(-c2ccc3c(c2)CC(C)(C)[C@H]3NC(=O)O[C@@H]2CN3CCC2CC3)ccc1OC(F)F` [Example 48, (S)-quinuclidin-3-yl((R)-5-(4-(difluoromethoxy)-3-methylphenyl)-2,2-dimethyl-2,3-dihydro-1H-inden-1-yl)carbamate], for which the IC50 was 13.9 nM in data set [1] (Homo sapiens, Jurkat, 72 h) and 1.3 nM in data set [2].
The like results for `CC(C)Oc1cc(F)cc(-c2ccc3c(c2)CC(C)(C)[C@H]3NC(=O)O[C@@H]2CN3CCC2CC3)c1` [Example 49, (S)-quinuclidin-3-yl((R)-5-(3-fluoro-5-isopropoxyphenyl)-2,2-dimethyl-2,3-dihydro-1H-inden-1-yl)carbamate] were, in that order, 9.4 nM and 0.58 nM.
The corresponding values for `CC(C)COc1cc(F)cc(-c2ccc3c(c2)CC(C)(C)[C@H]3NC(=O)O[C@@H]2CN3CCC2CC3)c1` [Example 50, (S)-quinuclidin-3-yl((R)-5-(3-fluoro-5-isobutoxyphenyl)-2,2-dimethyl-2,3-dihydro-1H-inden-1-yl)carbamate] are 2.2 nM and 0.44 nM.
As for `CC1(C)Cc2cc(-c3cc(F)cc(OCC(F)(F)F)c3)ccc2[C@@H]1NC(=O)O[C@@H]1CN2CCC1CC2` [Example 51, (S)-quinuclidin-3-yl((R)-5-(3-fluoro-5-(2,2,2-trifluoroethoxy)phenyl)-2,2-dimethyl-2,3-dihydro-1H-inden-1-yl) carbamate], the results for the IC50 in data set [1] (read-out: IC50) and in data set [2] (setting [4]) were 9.1 nM and 0.65 nM, respectively.
On to `CC(C)Oc1cc(-c2ccc3c(c2)CC(C)(C)[C@H]3NC(=O)O[C@@H]2CN3CCC2CC3)ccc1Cl` [Example 52, (S)-quinuclidin-3-yl((R)-5-(4-chloro-3-isopropoxyphenyl)-2,2-dimethyl-2,3-dihydro-1H-inden-1-yl)carbamate], for which the concentration for half-maximal inhibition (IC50) was 36.7 nM in data set [1] (Homo sapiens, Jurkat, 72 h) and 8.27 nM in data set [2].
Consider `CC(C)COc1cc(Cl)cc(-c2ccc3c(c2)CC(C)(C)[C@H]3NC(=O)O[C@@H]2CN3CCC2CC3)c1` [Example 53, (S)-quinuclidin-3-yl((R)-5-(3-chloro-5-isobutoxyphenyl)-2,2-dimethyl-2,3-dihydro-1H-inden-1-yl)carbamate], for which the half-inhibitory concentration (IC50) was 4.1 nM in data set [1] (Homo sapiens, Jurkat, 72 h) and 0.67 nM in data set [2].
Regarding `CC(C)Oc1cc(Cl)cc(-c2ccc3c(c2)CC(C)(C)[C@H]3NC(=O)O[C@@H]2CN3CCC2CC3)c1` [Example 54, (S)-quinuclidin-3-yl((R)-5-(3-chloro-5-isopropoxyphenyl)-2,2-dimethyl-2,3-dihydro-1H-inden-1-yl)carbamate], the IC50 in data set [1] (Homo sapiens, Jurkat, 72 h) is 8.6 nM; in data set [2] it was 0.59 nM.
With `CC1(C)Cc2cc(-c3ccc(OCC(F)(F)F)cc3Cl)ccc2[C@@H]1NC(=O)O[C@@H]1CN2CCC1CC2` [Example 55, (S)-quinuclidin-3-yl((R)-5-(2-chloro-4-(2,2,2-trifluoroethoxy)phenyl)-2,2-dimethyl-2,3-dihydro-1H-inden-1-yl)carbamate], the half-maximal inhibitory concentration (IC50) in data set [1] (Homo sapiens, Jurkat, 72 h) was found to be 2.2 nM; in data set [2], 0.63 nM.
As for `CCCOc1ccc(-c2cc3c(cc2F)[C@H](NC(=O)O[C@@H]2CN4CCC2CC4)C(C)(C)C3)cc1` [Example 69, (S)-quinuclidin-3-yl((R)-6-fluoro-2,2-dimethyl-5-(4-propoxyphenyl)-2,3-dihydro-1H-inden-1-yl)carbamate], half-maximal inhibition in data set [1] (Homo sapiens, Jurkat, 72 h) (IC50) required 1.1 nM. Moreover, the Kp at 4 h in data set [3] was 9.84. The results for the concentration at 4 h in data set [3] (setting [5]) and in data set [3] (setting [6]) were 4140 ng/g and 433 ng/mL, respectively.
The like results for `COc1ccc(-c2cc3c(cc2F)[C@H](NC(=O)O[C@@H]2CN4CCC2CC4)C(C)(C)C3)cc1` [Example 82, (S)-quinuclidin-3-yl((R)-6-fluoro-5-(4-methoxyphenyl)-2,2-dimethyl-2,3-dihydro-1H-inden-1-yl)carbamate] were, in that order, 20.3 nM, 6.32, 5520 ng/g and 896 ng/mL.
The corresponding values for `CCOc1ccc(-c2cc3c(cc2F)[C@H](NC(=O)O[C@@H]2CN4CCC2CC4)C(C)(C)C3)cc1F` [Example 90, (S)-quinuclidin-3-yl((R)-5-(4-ethoxy-3-fluorophenyl)-6-fluoro-2,2-dimethyl-2,3-dihydro-1H-inden-1-yl)carbamate] are 26.4 nM, 7.42, 6480 ng/g and 874 ng/mL.
The corresponding values for `COc1ccc(-c2cc3c(cc2F)[C@H](NC(=O)O[C@@H]2CN4CCC2CC4)C(C)(C)C3)c(Cl)c1` [Example 103, (S)-quinuclidin-3-yl((R)-5-(2-chloro-4-methoxyphenyl)-6-fluoro-2,2-dimethyl-2,3-dihydro-1H-inden-1-yl)carbamate] are 5.6 nM, 2.76, 4680 ng/g and 1700 ng/mL.

Broadly, the IC50 is the midpoint of a concentration-inhibition curve.
